Measurements taken from the supplement of paper PMC10307832.

Compound: CC1CC(=O)N(C2=CN=C(N=C2N1C3CCCC3)NC4=C(C=C(C=C4)C(=O)NC5CCN(CC5)C)OC)C [NPK76-II-72-1] + COc1cc2c(Oc3ccc(NC(=O)C4(C(=O)Nc5ccc(F)cc5)CC4)cc3F)ccnc2cc1OCCCN1CCOCC1 [Foretinib] (partner 0.25 µM)
Assay: relative viability (nuclei count vs DMSO), 5 days (fraction); higher = more cells survive
Conditions: first compound 0.01 µM
Outline: (§1)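 Nuclei were stained with Hoechst during a one-step fixation (final 0.05% Triton X-100, 1% formaldehyde, 1 ug/ml Hoechst) carried out 5 days after dosing, then counted on 4× images. The cells, lung cancer lines in 1536-well plates, had been dosed by pin tool the day after seeding with one drug alone or a fixed anchor-drug dose plus five library-drug doses (not always all listed) in √10 steps. Relative viability is the nuclei count in treated wells divided by that in vehicle wells, and each value is the median of duplicate plates.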

Cell Line	relative viability
NCI-H1623	0.836
NCI-H727	0.93
NCI-H1650	1.16
EBC-1	0.103
NCI-H1703	0.363
NCI-H1993	0.801
SW 1573	0.997
NCI-H838	0.956
LCLC-103H	0.666
NCI-H520	0.648
NCI-H2126	1.47
EMC-BAC-2	1.05
NCI-H2085	0.792
Calu-6	0.833
HCC-366	0.929
NCI-H1666	0.909
NCI-H596	0.907
LK-2	1.15
NCI-H2087	1.04

Cell Line	relative viability
NCI-H2342	0.948
SK-MES-1	0.975
H3255	0.838
COR-L23	0.915
COR-L 105	0.865
IA-LM	1.06
LOU-NH91	0.871
ChaGo-K-1	0.923
NCI-H2170	0.909
A549	0.937
SW 900	0.864
NCI-H2009	0.843
NCI-H661	0.997
SK-LU-1	0.814
NCI-H1299	1.11
NCI-H2228	0.845
NCI-H2023	0.659
NCI-H1563	0.84

Same assay, conditions: first compound 0.03162 µM

Cell Line	relative viability
NCI-H1623	0.872
NCI-H727	1.04
NCI-H1650	1.06
EBC-1	0.121
NCI-H1993	0.791
SW 1573	1.02
NCI-H838	0.99
LCLC-103H	0.726
NCI-H520	0.854
NCI-H2126	1.23
EMC-BAC-2	1.07
NCI-H2085	0.923
Calu-6	0.991
HCC-366	0.953
NCI-H1666	1.04
NCI-H596	1.01
LK-2	1.26
NCI-H2087	1.06

Cell Line	relative viability
NCI-H2342	1.1
SK-MES-1	0.957
H3255	0.797
COR-L23	0.977
COR-L 105	1.25
IA-LM	1.18
LOU-NH91	0.933
ChaGo-K-1	0.91
NCI-H2170	0.975
A549	0.979
SW 900	1.27
NCI-H2009	1.25
NCI-H661	1.01
SK-LU-1	0.83
NCI-H1299	1.12
NCI-H2228	1.07
NCI-H2023	0.797
NCI-H1563	0.875

Same assay, conditions: first compound 0.1 µM

Cell Line	relative viability
NCI-H1623	0.914
NCI-H727	0.783
NCI-H1650	0.966
EBC-1	0.0919
NCI-H1703	0.316
NCI-H1993	0.868
SW 1573	0.914
NCI-H838	1.1
LCLC-103H	0.717
NCI-H520	0.674
NCI-H2126	0.916
EMC-BAC-2	1.07
NCI-H2085	0.902
Calu-6	0.772
HCC-366	0.906
NCI-H1666	0.855
NCI-H596	0.824
LK-2	1.09

Cell Line	relative viability
NCI-H2087	1.09
NCI-H2342	1.09
SK-MES-1	0.877
H3255	0.854
COR-L23	1.01
COR-L 105	1.06
IA-LM	1.18
LOU-NH91	0.948
ChaGo-K-1	0.994
NCI-H2170	1.01
A549	0.93
SW 900	0.852
NCI-H2009	1.22
NCI-H661	1.03
SK-LU-1	0.879
NCI-H1299	1.2
NCI-H2228	0.794
NCI-H1563	0.933

Same assay, conditions: first compound 0.3162 µM

Cell Line	relative viability
NCI-H1623	0.566
NCI-H727	1.14
NCI-H1650	0.943
EBC-1	0.114
NCI-H1703	0.35
NCI-H1993	0.604
SW 1573	0.963
NCI-H838	0.949
LCLC-103H	0.745
NCI-H520	0.867
NCI-H2126	1.14
EMC-BAC-2	0.945
NCI-H2085	0.781
Calu-6	0.823
HCC-366	0.944
NCI-H1666	0.918
NCI-H596	0.819
LK-2	1.09
NCI-H2087	1.12

Cell Line	relative viability
NCI-H2342	0.88
SK-MES-1	0.808
H3255	0.633
COR-L23	0.9
COR-L 105	1.03
IA-LM	1.12
LOU-NH91	0.795
ChaGo-K-1	0.92
NCI-H2170	0.885
A549	0.856
SW 900	0.76
NCI-H2009	1.21
NCI-H661	0.909
SK-LU-1	0.833
NCI-H1299	1.07
NCI-H2228	0.914
NCI-H2023	0.624
NCI-H1563	0.923

Same assay, conditions: first compound 1 µM

Cell Line	relative viability
NCI-H1623	0.998
NCI-H727	0.897
NCI-H1650	1.37
EBC-1	0.108
NCI-H1703	0.343
NCI-H1993	0.808
SW 1573	0.824
NCI-H838	1.09
LCLC-103H	0.739
NCI-H520	0.794
NCI-H2126	1.17
EMC-BAC-2	1.2
NCI-H2085	1.15
Calu-6	0.913
HCC-366	0.951
NCI-H1666	1.06
NCI-H596	0.842
LK-2	1.13
NCI-H2087	1.32

Cell Line	relative viability
NCI-H2342	1.15
SK-MES-1	0.912
H3255	0.867
COR-L23	0.979
COR-L 105	0.89
IA-LM	1.26
LOU-NH91	1
ChaGo-K-1	0.882
NCI-H2170	1.06
A549	1.05
SW 900	0.947
NCI-H2009	1.23
NCI-H661	1.07
SK-LU-1	0.893
NCI-H1299	1.03
NCI-H2228	0.832
NCI-H2023	1.07
NCI-H1563	0.845

Compound: CC[C@@H]1C(=O)N(C)c2cnc(Nc3ccc(C(=O)NC4CCN(C)CC4)cc3OC)nc2N1C1CCCC1 [BI-2536] + Cc1nc(NC(=O)N2CCC[C@H]2C(N)=O)sc1-c1ccnc(C(C)(C)C(F)(F)F)c1 [Alpelisib] (partner 2 µM)
Assay: as above
Conditions: first compound 0.01 µM
Outline: as §1

Cell Line	relative viability
NCI-H727	0.616
EBC-1	0.852
NCI-H1703	0.347
NCI-H1993	0.68
SW 1573	0.821
NCI-H838	0.967
LCLC-103H	1.05
NCI-H520	0.833
NCI-H2126	0.739
EMC-BAC-2	0.741
NCI-H2085	1.01
Calu-6	0.985
HCC-366	0.469
NCI-H1666	0.988
NCI-H596	0.409
LK-2	1.14
NCI-H2087	1.11

Cell Line	relative viability
SK-MES-1	0.869
H3255	0.691
COR-L23	0.853
COR-L 105	0.744
IA-LM	0.729
LOU-NH91	0.764
NCI-H2170	0.767
HCC-44	0.775
A549	0.767
NCI-H2009	1.15
NCI-H661	0.149
SK-LU-1	1.03
NCI-H1299	0.952
NCI-H2228	0.899
NCI-H1792	0.786
NCI-H2023	0.57
NCI-H1563	0.858

Same assay, conditions: first compound 0.03162 µM

Cell Line	relative viability
NCI-H727	0.636
EBC-1	0.799
NCI-H1703	0.247
NCI-H1993	0.618
SW 1573	0.842
NCI-H838	1
LCLC-103H	0.925
NCI-H520	0.828
NCI-H2126	0.731
EMC-BAC-2	0.886
NCI-H2085	0.863
Calu-6	0.682
HCC-366	0.344
NCI-H1666	0.737
NCI-H596	0.46
LK-2	0.318
NCI-H2087	1.18

Cell Line	relative viability
SK-MES-1	0.957
H3255	0.492
COR-L23	0.675
COR-L 105	1.07
IA-LM	0.652
LOU-NH91	0.602
NCI-H2170	0.871
HCC-44	0.705
A549	0.814
NCI-H2009	1.01
NCI-H661	0.577
SK-LU-1	0.507
NCI-H1299	1.15
NCI-H2228	0.373
NCI-H1792	0.804
NCI-H2023	0.577
NCI-H1563	0.933

Same assay, conditions: first compound 0.1 µM

Cell Line	relative viability
NCI-H727	0.453
EBC-1	0.564
NCI-H1703	0.279
NCI-H1993	0.556
SW 1573	0.791
NCI-H838	0.661
LCLC-103H	0.929
NCI-H520	0.315
NCI-H2126	0.62
EMC-BAC-2	0.604
NCI-H2085	0.601
Calu-6	0.285
HCC-366	0.273
NCI-H1666	0.592
NCI-H596	0.535
LK-2	0.374
NCI-H2087	1.03

Cell Line	relative viability
SK-MES-1	0.786
H3255	0.37
COR-L23	0.18
COR-L 105	0.817
IA-LM	0.588
LOU-NH91	0.657
NCI-H2170	0.402
HCC-44	0.423
A549	0.698
NCI-H2009	0.581
NCI-H661	0.619
SK-LU-1	0.317
NCI-H1299	1
NCI-H2228	0.193
NCI-H1792	0.643
NCI-H2023	0.309
NCI-H1563	0.928

Same assay, conditions: first compound 0.3162 µM

Cell Line	relative viability
NCI-H727	0.245
EBC-1	0.175
NCI-H1703	0.0951
NCI-H1993	0.532
SW 1573	0.162
NCI-H838	0.124
LCLC-103H	0.556
NCI-H520	0.201
NCI-H2126	0.269
EMC-BAC-2	0.161
NCI-H2085	0.234
Calu-6	0.0989
HCC-366	0.0093
NCI-H1666	0.287
NCI-H596	0.305
LK-2	0.222
NCI-H2087	0.15
SK-MES-1	0.147
H3255	0.252
COR-L23	0.0928
COR-L 105	0.252
IA-LM	0.0728
LOU-NH91	0.359
NCI-H2170	0.195
HCC-44	0.0667
A549	0.0447
NCI-H2009	0.236
NCI-H661	0.216
